Results reported in patent US9890403B2, “Method for producing single cell oil from lignocellulosic materials” (NESTE OYJ, priority 2013, dated 2018).
Read-outs that look alike come from different tables or passages of the source.

Legend:
Aspergillus. oryzae = conditions: 5 days, 28 C
Method: The experiments were done using a lipid producing fungal strain Aspergillus. oryzae. From the sporulating fungus grown on PDA-plates a spore suspension was made by adding 12 ml of sterile water and the spores were scraped off with inoculation loop to the liquid. The spore suspension was used for media inoculation.
All of them contained these basic nutrients, and small amount of fine cellulose to prevent the fungus from clumping.
The organic acids were added in so the concentration of the formic and acetic acid alone was 0, 1, 3, 5 and 7 g/l, and for the two acids together 0, 1, 3, 5, 7 and 9 g/l. After this the pH of the media was adjusted to 5.5-6.0 using 3 M NaOH. The medium was distributed to 50 ml batches into 250 ml erlenmayer flasks. The media was sterilized in autoclave 121 C 15 min. After cooling down, each flask was inoculated using 0.5 ml spore suspension mentioned earlier. For each concentration, parallel cultivations were made. The cultivations were incubated in 160 rpm shaking at 28 C 5 days. The growth was observed daily with a microscope, and in the end of the cultivation the biomass and lipid contents were determined.
The biomass content was determined by vacuum filtering the whole content of the flask and washing the biomass with 50 ml of distilled water. After this the biomass cakes were frozen and dried overnight in freeze dryer. From the dries biomass the lipid content was analyzed according to Suutari et al. (1990). The lipids in the samples were first hydrolysed into free fatty acids, which were saponified into sodium salts thereof and thereafter methylated into methyl esters. The fatty methyl esters were analysed gas chromatographically.

Aspergillus oryzae TKK-4 = experiment: Effect of furfural on microbial growth, flask cultivation (Example 7); format: cell-based; conditions: for DW (dry weight concentration): after 6 days of cultivation
Method: (§1) Two fungal strains Aspergillus oryzae TKK-4 and Mortierella isabellina TKK-1 and one yeast strain Lipomyces starkeyi TKK-1 were cultivated in flasks in a standard medium (Table 12) with furfural addition. The microorganisms were grown for 6 days in 28° C. with 160 rpm (for fungi) and 250 rpm (for yeast). Cellulose was added to help the fungus grow with a better morphology. Furfural was added in different amounts into the medium (0-4 g/l) and the growth of the microorganisms was observed.

Lipomyces starkeyi TKK-1 = experiment: as above; format: cell-based; conditions: for DW (dry weight concentration): after 6 days of cultivation
Method: as §1

[1] = test system: Mortierella isabellina TKK-1; experiment: as above; format: cell-based; conditions: for DW (dry weight concentration): after 6 days of cultivation
Method: as §1

Compound	Biomass concentration (Aspergillus. oryzae; acid concentration 1 g/l) [g/L]	Lipid content (Aspergillus. oryzae; acid concentration 1 g/l) [% from cell dry weight]	Biomass concentration (Aspergillus. oryzae; acid concentration 3 g/l) [g/L]	Lipid content (Aspergillus. oryzae; acid concentration 3 g/l) [% from cell dry weight]	Biomass concentration (Aspergillus. oryzae; acid concentration 5 g/l) [g/L]	Lipid content (Aspergillus. oryzae; acid concentration 5 g/l) [% from cell dry weight]	Biomass concentration (Aspergillus. oryzae; acid concentration 7 g/l) [g/L]	Lipid content (Aspergillus. oryzae; acid concentration 7 g/l) [% from cell dry weight]	also measured
CC(=O)O [Acetic acid, acetic acid]	12.4	19.8	11.4	20.7	11.1	21.2	11.5	24.3	–
O=CO [Formic acid, formic acid]	12.5	19.5	12.0	19.5	11.2	15.9	10.9	19.8	–
O=Cc1ccco1 [Furfural]	–	–	–	–	–	–	–	–	Furfural concentration in which the microbe grew (Aspergillus oryzae TKK-4; after one week): 0.5 g/L; Furfural concentration that inhibited the growth completely (Aspergillus oryzae TKK-4; after one week): ≥ 0.75 g/L; DW (dry weight concentration) (Aspergillus oryzae TKK-4; furfural 0.1 g/l): 18.18 g/L; DW (dry weight concentration) (Aspergillus oryzae TKK-4; furfural 0.2 g/l): 16.54 g/L; DW (dry weight concentration) (Aspergillus oryzae TKK-4; furfural 0.3 g/l): 13.53 g/L; DW (dry weight concentration) (Aspergillus oryzae TKK-4; furfural 0.4 g/l): 11.58 g/L; Inhibiting concentration of furfural (Lipomyces starkeyi TKK-1): ≥ 1.8 g/L; Furfural concentration in which the microbe grew (Lipomyces starkeyi TKK-1; after a few days): 1.2 g/L; DW (dry weight concentration) (Lipomyces starkeyi TKK-1; furfural 0.6 g/l): 14.79 g/L; DW (dry weight concentration) (Lipomyces starkeyi TKK-1; furfural 1.2 g/l): 14.39 g/L; Furfural concentration in which the microbe did not grow [1]: ≥ 1 g/L; Furfural concentration in which some growth was observed ([1]; after 4-6 days): 0.8 g/L; DW (dry weight concentration) ([1]; furfural 0.2 g/l): 7.02 g/L; DW (dry weight concentration) ([1]; furfural 0.4 g/l): 13.80 g/L; DW (dry weight concentration) ([1]; furfural 0.6 g/l): 14.96 g/L; DW (dry weight concentration) ([1]; furfural 0.8 g/l): 9.28 g/L
